Laboratory results taken from US4468511A, “C-20- And C-23-Modified macrolide derivatives” (Eli Lilly and Company, priority 1983, dated 1984).
Converted amounts (≈) assume the structure as drawn. Like-named read-outs stand apart in the source and are kept apart here.

What was measured:
[1] = test system: Streptococcus pyogenes C203; assay: Protection of mice experimentally infected with S. pyogenes C203; type: in vivo; conditions: mg/kg × 2, doses given 1 and 4 hours postinfection
Description: Some of the derivatives of this invention have shown in vivo antimicrobial activity against experimentally-induced infections in laboratory animals. When two doses of test compound were administered to mice experimentally infected with S. pyogenes C203, the activity observed was measured as an ED50 value [effective dose in mg/kg to protect 50% of the test animals: see Warren Wick, et al., J. Bacteriol. 81, 233-235 (1961)].

[2] = test system: Pasteurella multocida 22A; assay: MIC, conventional broth-dilution microtiter test; type: cell-based
Description: (§1) Certain of the derivatives are active against some gram-negative bacteria, such as Pasteurella species. The MIC's in Table II were determined by standard agar-dilution assays. The MIC's in Table III were obtained using a conventional broth-dilution microtiter test.

Mycoplasma hyorhinis = assay: MIC, conventional broth-dilution microtiter test; type: cell-based; conditions: broth-dilution microtiter; Mycoplasma hyorhinis; read-out: MIC
Description: as §1

[3] = test system: Pasteurella hemolytica 41D; assay: MIC, conventional broth-dilution microtiter test; type: cell-based; conditions: broth-dilution microtiter; Pasteurella hemolytica 41D; read-out: MIC
Description: as §1

[4] = test system: Mycoplasma gallisepticum 41313; assay: MIC, conventional broth-dilution microtiter test; type: cell-based; conditions: Mycoplasmoides gallisepticum
Description: as §1

[5] = test system: Pasteurella hemolytica 22C; assay: MIC, conventional broth-dilution microtiter test; type: cell-based; conditions: broth-dilution microtiter; Pasteurella hemolytica 22C; read-out: MIC
Description: as §1

Streptococcus sp. 80 = assay: MIC, conventional broth-dilution microtiter test; type: cell-based
Description: as §1

Mycoplasma gallisepticum = assay: MIC, conventional broth-dilution microtiter test; type: cell-based; conditions: Mycoplasmoides gallisepticum
Description: as §1

Mycoplasma synoviae = assay: MIC, conventional broth-dilution microtiter test; type: cell-based; conditions: Mycoplasmopsis synoviae
Description: as §1

Staphylococcus aureus = assay: MIC, conventional broth-dilution microtiter test; type: cell-based; conditions: broth-dilution microtiter, read-out: MIC
Description: as §1

[6] = test system: Mycoplasma gallisepticum 34159; assay: MIC, conventional broth-dilution microtiter test; type: cell-based; conditions: Mycoplasmoides gallisepticum
Description: as §1

[7] = test system: Pasteurella hemolytica 23C; assay: MIC, conventional broth-dilution microtiter test; type: cell-based; conditions: broth-dilution microtiter; Pasteurella hemolytica 23C; read-out: MIC
Description: as §1

[8] = test system: Pasteurella multocida 68C; assay: MIC, conventional broth-dilution microtiter test; type: cell-based
Description: as §1

[9] = test system: Pasteurella multocida 60A; assay: MIC, conventional broth-dilution microtiter test; type: cell-based
Description: as §1

[10] = test system: Pasteurella multocida 17E; assay: MIC, conventional broth-dilution microtiter test; type: cell-based
Description: as §1

[11] = test system: Pasteurella multocida 40G; assay: MIC, conventional broth-dilution microtiter test; type: cell-based
Description: as §1

[12] = test system: Streptococcus pyogenes 9960; assay: MIC, standard agar-dilution assay; type: cell-based
Description: as §1

[13] = test system: Streptococcus pyogenes C203; assay: MIC, standard agar-dilution assay; type: cell-based
Description: as §1

Escherichia coli TEM = assay: MIC, standard agar-dilution assay; type: cell-based; conditions: agar-dilution; Escherichia coli TEM; read-out: MIC
Description: as §1

[14] = test system: Streptococcus Group D X66; assay: MIC, standard agar-dilution assay; type: cell-based
Description: as §1

[15] = test system: Staphylococcus aureus X1.1; assay: MIC, standard agar-dilution assay; type: cell-based; conditions: Staphylococcus aureus, X1.1
Description: as §1

[16] = test system: Klebsiella pneumoniae X26; assay: MIC, standard agar-dilution assay; type: cell-based
Description: as §1

[17] = test system: Klebsiella pneumoniae KAE; assay: MIC, standard agar-dilution assay; type: cell-based
Description: as §1

[18] = test system: Staphylococcus aureus V41; assay: MIC, standard agar-dilution assay; type: cell-based; conditions: Staphylococcus aureus, V41
Description: as §1

[19] = test system: Streptococcus pneumoniae Park I; assay: MIC, standard agar-dilution assay; type: cell-based; conditions: agar-dilution; Streptococcus pneumoniae Park I; read-out: MIC
Description: as §1

Escherichia coli EC14 = assay: MIC, standard agar-dilution assay; type: cell-based
Description: as §1

[20] = test system: Staphylococcus aureus S13E; assay: microbe, parasite or virus in culture; type: cell-based
Description: (§2) The MIC's in Table II were determined by standard agar-dilution assays. The MIC's in Table III were obtained using a conventional broth-dilution microtiter test.

[21] = test system: Staphylococcus epidermidis EPI1; assay: microbe, parasite or virus in culture; type: cell-based; conditions: Staphylococcus epidermidis, EPI1
Description: as §2

[22] = test system: Haemophilus influenzae 76; assay: MIC, standard agar-dilution assay; type: cell-based; conditions: agar-dilution; Haemophilus influenzae 76, Ampicillin-resistant strain; read-out: MIC
Description: as §2

[23] = test system: Haemophilus influenzae C.L.; assay: MIC, standard agar-dilution assay; type: cell-based
Description: as §2

[24] = test system: Staphylococcus aureus X400; assay: MIC, standard agar-dilution assay; type: cell-based; conditions: Staphylococcus aureus, X400
Description: as §2

[25] = test system: Staphylococcus epidermidis EPI2; assay: MIC, standard agar-dilution assay; type: cell-based
Description: as §2

[26] = C203, mice, oral, read-out: ED50 Oral
[27] = C203, sc, mice, subcutaneous, read-out: ED50 Subcutaneous
[28] = broth-dilution microtiter, Mycoplasma gallisepticum 41313, Resistant strain, read-out: MIC
[29] = broth-dilution microtiter, Streptococcus sp. 80, read-out: MIC
[30] = broth-dilution microtiter, Mycoplasma gallisepticum, read-out: MIC
[31] = broth-dilution microtiter, Mycoplasma gallisepticum 34159, Resistant strain, read-out: MIC
[32] = agar-dilution, Streptococcus Group D X66, read-out: MIC
[33] = agar-dilution, Klebsiella pneumoniae X26, read-out: MIC
[34] = agar-dilution, Klebsiella pneumoniae KAE, read-out: MIC
[35] = agar-dilution, Escherichia coli EC14, read-out: MIC
[36] = Staphylococcus epidermidis, EPI2
[37] = broth-dilution microtiter, Mycoplasma synoviae, read-out: MIC
[38] = broth-dilution microtiter, Pasteurella multocida 60A, Avian isolate, read-out: MIC
[39] = agar-dilution, Streptococcus 9960, read-out: MIC
[40] = agar-dilution, Streptococcus pyogenes C203, read-out: MIC

| Structure (SMILES) | ED50 [1, 26] [mg/kg] | ED50 [1, 27] [mg/kg] | MIC ([2]; Pasteurella multocida, 22A) [µg/mL] | MIC (Mycoplasma hyorhinis) [µg/mL] | MIC [3] [µg/mL] | MIC [4, 28] [µg/mL] | MIC [5] [µg/mL] | MIC (Streptococcus sp. 80; [29]) [µg/mL] | MIC (Mycoplasma gallisepticum; [30]) [µg/mL] | MIC (Staphylococcus aureus) [µg/mL] | MIC [6, 31] [µg/mL] | MIC [7] [µg/mL] | MIC ([8]; Pasteurella multocida, 68C) [µg/mL] | MIC (Escherichia coli TEM) [µg/mL] | MIC [15] [µg/mL] | MIC [18] [µg/mL] | MIC [20] [µg/mL] | MIC [21] [µg/mL] | MIC [22] [µg/mL] | MIC [24] [µg/mL] | other results |
| --- | --- | --- | --- | --- | --- | --- | --- | --- | --- | --- | --- | --- | --- | --- | --- | --- | --- | --- | --- | --- | --- |
| CCC1OC(=O)CC(O)C(C)C(OC2OC(C)C(O)C(N(C)C)C2O)C(CCOc2ccccc2)CC(C)C(=O)C=CC(C)=CC1COc1ccccc1 (stereo not drawn) [Compound 32, 20,23-Di-O-phenyl-20-dihydro-OMT] | > 50 | > 10 | 3.12 (≈ 4.15 µM) | 50 (≈ 66.5 µM) | 12.5 (≈ 16.6 µM) | 25 (≈ 33.2 µM) | 12.5 (≈ 16.6 µM) | 0.048 (≈ 0.0638 µM) | 0.78 (≈ 1.04 µM) | 0.39 (≈ 0.519 µM) | 6.25 (≈ 8.31 µM) | 12.5 (≈ 16.6 µM) | 3.12 (≈ 4.15 µM) | > 128 | 1 (≈ 1.33 µM) | 1 (≈ 1.33 µM) | 1 (≈ 1.33 µM) | 1 (≈ 1.33 µM) | > 128 | 2 (≈ 2.66 µM) | MIC (Mycoplasma synoviae): 6.25 µg/mL (≈ 8.31 µM); MIC ([9]; Pasteurella multocida, 60A): 3.12 µg/mL (≈ 4.15 µM); MIC ([10]; Pasteurella multocida, 17E): 3.12 µg/mL (≈ 4.15 µM); MIC ([11]; Pasteurella multocida, 40G): 3.12 µg/mL (≈ 4.15 µM); MIC [12]; 9960: 2 µg/mL (≈ 2.66 µM); MIC ([13]; Streptococcus pyogenes, C203): 2 µg/mL (≈ 2.66 µM); MIC [14, 32]: 0.5 µg/mL (≈ 0.665 µM); MIC [16, 33]: > 128 µg/mL; MIC [17, 34]: > 128 µg/mL; MIC [19]: 0.25 µg/mL (≈ 0.332 µM); MIC (Escherichia coli EC14; [35]): > 128 µg/mL; MIC ([23]; agar-dilution, Haemophilus influenzae C.L., Ampicillin-sensitive strain, read-out: MIC): > 128 µg/mL; MIC [25, 36]: 1 µg/mL (≈ 1.33 µM) |
| CCC1CC(C)C(=O)C=CC(C)=CC(COc2cccc(OC)c2OC)C(CC)OC(=O)CC(O)C(C)C1OC1OC(C)C(O)C(N(C)C)C1O (stereo not drawn) [Compound 47, 23-O-(2,3-Dimethoxyphenyl)-20-deoxy-20-dihydro-OMT] | > 50 | > 10 | 50 (≈ 69.5 µM) | 25 (≈ 34.7 µM) | 25 (≈ 34.7 µM) |  | 25 (≈ 34.7 µM) |  |  | 3.12 (≈ 4.33 µM) |  | 25 (≈ 34.7 µM) | 12.5 (≈ 17.4 µM) | 128 (≈ 178 µM) | 0.25 (≈ 0.347 µM) | 0.25 (≈ 0.347 µM) | 0.25 (≈ 0.347 µM) | 0.25 (≈ 0.347 µM) | 16 (≈ 22.2 µM) | 0.25 (≈ 0.347 µM) | MIC [4]; 41313: 50 µg/mL (≈ 69.5 µM); MIC (Streptococcus sp. 80; Streptococcus, SP.80): 1.56 µg/mL (≈ 2.17 µM); MIC (Mycoplasma gallisepticum): 1.56 µg/mL (≈ 2.17 µM); MIC (Mycoplasma synoviae; [37]): 6.25 µg/mL (≈ 8.68 µM); MIC [6]; 34159: 50 µg/mL (≈ 69.5 µM); MIC [9, 38]: 25 µg/mL (≈ 34.7 µM); MIC ([10]; broth-dilution microtiter, Pasteurella multocida 17E, Bovine isolate, read-out: MIC): 25 µg/mL (≈ 34.7 µM); MIC ([11]; Pasteurella multocida, 40G): 12.5 µg/mL (≈ 17.4 µM); MIC [12, 39]: 0.25 µg/mL (≈ 0.347 µM); MIC [13, 40]: 0.25 µg/mL (≈ 0.347 µM); MIC [14, 32]: 0.25 µg/mL (≈ 0.347 µM); MIC ([16]; Klebsiella pneumoniae, X26): 4 µg/mL (≈ 5.56 µM); MIC [17, 34]: > 128 µg/mL; MIC (Escherichia coli EC14; [35]): > 128 µg/mL; MIC ([23]; Haemophilus influenzae): 32 µg/mL (≈ 44.4 µM); MIC [25, 36]: 0.25 µg/mL (≈ 0.347 µM) |
| CCC1OC(=O)CC(O)C(C)C(OC2OC(C)C(O)C(N(C)C)C2O)C(CCO)CC(C)C(=O)C=CC(C)=CC1CN1CCCCCCC1 (stereo not drawn) [Compound 58, 20-Dihydro-23-Octahydroazocin-1-yl-23-deoxy-OMT] |  |  |  | 25 (≈ 36 µM) | 0.39 (≈ 0.561 µM) | 50 (≈ 71.9 µM) | 0.78 (≈ 1.12 µM) | 1.56 (≈ 2.24 µM) | 0.39 (≈ 0.561 µM) | 0.78 (≈ 1.12 µM) | > 50 | 0.78 (≈ 1.12 µM) |  | 8 (≈ 11.5 µM) | 0.5 (≈ 0.719 µM) | 0.5 (≈ 0.719 µM) | 0.5 (≈ 0.719 µM) | 0.5 (≈ 0.719 µM) | 4 (≈ 5.76 µM) | 1 (≈ 1.44 µM) | MIC ([2]; broth-dilution microtiter, Pasteurella multocida 22A, read-out: MIC): 1.56 µg/mL (≈ 2.24 µM); MIC (Mycoplasma synoviae; [37]): 6.25 µg/mL (≈ 8.99 µM); MIC ([8]; broth-dilution microtiter, Pasteurella multocida 68C, read-out: MIC): 1.56 µg/mL (≈ 2.24 µM); MIC [9, 38]: 0.78 µg/mL (≈ 1.12 µM); MIC ([10]; Pasteurella multocida, 17E): 3.12 µg/mL (≈ 4.49 µM); MIC ([11]; broth-dilution microtiter, Pasteurella multocida 40G, read-out: MIC): 0.39 µg/mL (≈ 0.561 µM); MIC [12, 39]: 4 µg/mL (≈ 5.76 µM); MIC [13, 40]: 0.25 µg/mL (≈ 0.36 µM); MIC [14]: 2 µg/mL (≈ 2.88 µM); MIC [16, 33]: 2 µg/mL (≈ 2.88 µM); MIC ([17]; Klebsiella pneumoniae): 64 µg/mL (≈ 92.1 µM); MIC [19]: 0.25 µg/mL (≈ 0.36 µM); MIC (Escherichia coli EC14; Escherichia coli, EC14): 64 µg/mL (≈ 92.1 µM); MIC ([23]; Haemophilus influenzae): 2 µg/mL (≈ 2.88 µM); MIC ([25]; agar-dilution, Staphylococcus epidermidis EPI2, read-out: MIC): 0.25 µg/mL (≈ 0.36 µM) |
